The nature of data set [1]: Solubility of compound at pH 1 to 7 using crystalline form of sample. The data set is classed as physicochemical.
A short description of data set [2]: Half life in Wistar rat at 0.3 to 1 mg/kg, iv administered as bolus dose by LC-MS/MS analysis. It is filed as ADME, organism-based. To be noted: in vivo, dose 0.3-1 mg/kg.
A short description of data set [3]: Oral bioavailability in Wistar rat at 1 to 3 mg/kg administered via gavage using EtOH/PEG400/H2O 10/40/50 formulation by LC-MS/MS analysis. It is filed as ADME, organism-based. To be noted: in vivo, dose 1-3 mg/kg.
Data set [4] can be described thus: Clearance in Wistar rat at 0.3 to 1 mg/kg, iv administered as bolus dose or 15 mins infusion by LC-MS/MS analysis. The following applies: in vivo, dose 0.3-1 mg/kg. The data set is classed as ADME, organism-based.
The target in data set [5] is Cytochrome P450 3A4 (Homo sapiens, UniProt P08684). The experiment in a line: Inhibition of CYP3A4 in human liver microsomes using midazolam as substrate incubated for 10 mins in presence of NADPH generating system by LC-MS/MS analysis. (In general: Liver microsomes are vesicles of endoplasmic reticulum, rich in cytochrome P450 enzymes.)
Chain of Cytochrome P450 3A4 (P08684 whole entry): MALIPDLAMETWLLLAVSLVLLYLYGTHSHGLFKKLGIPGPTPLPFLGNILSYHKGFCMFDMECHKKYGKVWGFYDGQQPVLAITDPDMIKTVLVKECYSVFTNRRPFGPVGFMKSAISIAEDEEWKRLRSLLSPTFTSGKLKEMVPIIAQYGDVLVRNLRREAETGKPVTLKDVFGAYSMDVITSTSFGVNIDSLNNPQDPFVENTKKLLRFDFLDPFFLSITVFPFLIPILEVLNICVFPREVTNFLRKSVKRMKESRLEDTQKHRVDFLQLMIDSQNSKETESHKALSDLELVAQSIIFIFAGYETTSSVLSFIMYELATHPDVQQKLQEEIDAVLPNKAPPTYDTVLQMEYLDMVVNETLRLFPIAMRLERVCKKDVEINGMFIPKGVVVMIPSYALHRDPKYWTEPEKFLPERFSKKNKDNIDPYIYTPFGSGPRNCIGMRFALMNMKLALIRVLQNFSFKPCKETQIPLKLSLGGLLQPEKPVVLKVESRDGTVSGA
Data set [6] in a line: Protein binding in pooled human plasma assessed as unbound fraction incubated for 6 hrs by LC-MS/MS analysis based equilibrium dialysis method. The data set is classed as ADME, cell-free. (Equilibrium dialysis compares concentrations on both sides of a semipermeable membrane.)
Data set [7] in a line: Lipophilicity, log D of compound at pH 7.5 by HPLC analysis. The following applies: buffer.
For data set [8], the target named is Prostaglandin F2-alpha receptor (Homo sapiens, UniProt P43088). The experiment in a line: Antagonist activity at human FPR expressed in human Chem-1 cells assessed as inhibition of PGF2alpha-induced calcium flux preincubated for 10 mins followed by PGF2alpha stimulation and measured for 120 secs by fluo-8 AM dye based fluorescence assay. It is filed as functional, cell-based.
Chain of Prostaglandin F2-alpha receptor (P43088 whole entry): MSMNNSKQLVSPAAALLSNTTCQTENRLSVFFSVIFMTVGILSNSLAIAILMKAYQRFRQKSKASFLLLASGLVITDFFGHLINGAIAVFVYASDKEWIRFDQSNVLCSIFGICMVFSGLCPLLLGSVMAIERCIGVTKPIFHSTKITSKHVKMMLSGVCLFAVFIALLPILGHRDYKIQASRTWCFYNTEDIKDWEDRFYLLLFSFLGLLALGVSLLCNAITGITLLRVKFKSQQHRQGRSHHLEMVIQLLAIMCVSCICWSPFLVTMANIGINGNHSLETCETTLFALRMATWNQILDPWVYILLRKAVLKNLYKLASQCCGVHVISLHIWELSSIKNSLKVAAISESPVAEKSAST

Data set [9] has as its target Cytochrome P450 2D6 (Homo sapiens, UniProt P10635). In words: Inhibition of CYP2D6 in human liver microsomes using dextromethorphan as substrate incubated for 15 mins in presence of NADPH generating system by LC-MS/MS analysis. The data set is classed as ADME.
Data set [10] addresses Cytochrome P450 2C9 (Homo sapiens, UniProt P11712). In words: Inhibition of CYP2C9 in human liver microsomes using diclofenac as substrate incubated for 15 mins in presence of NADPH generating system by LC-MS/MS analysis. It is filed as ADME.
For data set [11], the target named is Cytochrome P450 2C8 (Homo sapiens, UniProt P10632). The experiment in a line: Inhibition of CYP2C8 in human liver microsomes using amodiaquine as substrate incubated for 15 mins in presence of NADPH generating system by LC-MS/MS analysis. The data set is classed as ADME.
Chain of Cytochrome P450 2C8 (P10632 whole entry): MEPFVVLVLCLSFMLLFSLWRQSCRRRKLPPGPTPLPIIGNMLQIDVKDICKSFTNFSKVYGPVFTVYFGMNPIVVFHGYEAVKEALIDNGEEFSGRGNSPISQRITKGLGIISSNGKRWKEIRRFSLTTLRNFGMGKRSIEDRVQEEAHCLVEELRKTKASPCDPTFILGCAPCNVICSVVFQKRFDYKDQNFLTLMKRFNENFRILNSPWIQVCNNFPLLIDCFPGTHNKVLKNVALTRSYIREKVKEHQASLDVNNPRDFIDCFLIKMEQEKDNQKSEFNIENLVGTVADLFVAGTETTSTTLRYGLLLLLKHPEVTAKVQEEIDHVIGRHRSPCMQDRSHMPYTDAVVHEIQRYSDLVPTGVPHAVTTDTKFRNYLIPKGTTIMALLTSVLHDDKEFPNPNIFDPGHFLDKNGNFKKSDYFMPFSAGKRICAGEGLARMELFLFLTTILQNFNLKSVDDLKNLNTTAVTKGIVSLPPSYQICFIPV
Data set [12] has as its target Cytochrome P450 1A2 (Homo sapiens, UniProt P05177). In words: Inhibition of CYP1A2 in human liver microsomes using phenacetin as substrate incubated for 15 mins in presence of NADPH generating system by LC-MS/MS analysis. The data set is classed as ADME.
The nature of data set [13]: Clearance in Wistar rat at 0.3 to 1 mg/kg, iv administered as bolus dose by LC-MS/MS analysis. It is filed as ADME, organism-based. To be noted: in vivo, dose 0.3-1 mg/kg.
Data set [14] is described as follows: Oral bioavailability in Wistar rat at 1 to 3 mg/kg administered via gavage using EtOH/PEG400/H2O/DMSO 8/40/50/2 formulation by LC-MS/MS analysis. It is filed as ADME, organism-based. To be noted: in vivo, dose 1-3 mg/kg.
In data set [15] the test system is Mus musculus. The experiment in a line: Antifibrotic activity in silica-induced pulmonary fibrosis C57Bl6J mouse model assessed as decrease in lung osteopontin production at 3 to 30 mg/kg, po bid for 9 days measured post-last dose by Bio-Rad analysis. To be noted: dose mg/kg 3-30, time 9.0 day. The data set is classed as functional, organism-based.
For data set [16], the system named is Mus musculus. In words: Antifibrotic activity in silica-induced pulmonary fibrosis C57Bl6J mouse model assessed as decrease in lung IL1beta production at 3 to 30 mg/kg, po bid for 9 days measured post-last dose by Bio-Rad analysis. The following applies: dose mg/kg 3-30, time 9.0 day. It is filed as functional, organism-based.
The test system of data set [17] is Mus musculus. In words: Antifibrotic activity in silica-induced pulmonary fibrosis C57Bl6J mouse model assessed as decrease in lung MCP1 production at 3 to 30 mg/kg, po bid for 9 days measured post-last dose by Bio-Rad analysis. The data set is classed as functional, organism-based. To be noted: dose mg/kg 3-30, time 9.0 day.
Data set [18] addresses Prostaglandin F2-alpha receptor (Mus musculus) (UniProt P43117). In words: Antagonist activity at FPR in mouse NIH3T3 cells co-transfected with mtClytin assessed as inhibition of PGF2alpha-induced calcium flux preincubated for 5 mins followed by PGF2alpha stimulation and measured for 60 secs by calcium dye based fluorescence assay. It is filed as functional, cell-based. To be noted: filed as antagonist, time 6.0 min.

The nature of data set [19]: Toxicity in Wistar rat up to 200 mg/kg/day, po administered for 14 days. The data set is classed as organism-based. The following applies: in vivo, 336 h, time 14 day.
A short description of data set [20]: Induction of CYP3A4 mRNA expression in human hepatocytes supplemented with fresh medium containing compounds daily for 2 days measured 24 hrs post last dose by qRT-PCR analysis. The following applies: 72 h.

Structures are written as SMILES. Values after ≈ are worked out from the molar mass of the structure shown. Active and inactive are the calls of the source. The calls are words filed in the database; no cut-off is given here. Bounds are passed on as bounds.

Chain of Prostaglandin F2-alpha receptor (Mus musculus) (P43117 whole entry): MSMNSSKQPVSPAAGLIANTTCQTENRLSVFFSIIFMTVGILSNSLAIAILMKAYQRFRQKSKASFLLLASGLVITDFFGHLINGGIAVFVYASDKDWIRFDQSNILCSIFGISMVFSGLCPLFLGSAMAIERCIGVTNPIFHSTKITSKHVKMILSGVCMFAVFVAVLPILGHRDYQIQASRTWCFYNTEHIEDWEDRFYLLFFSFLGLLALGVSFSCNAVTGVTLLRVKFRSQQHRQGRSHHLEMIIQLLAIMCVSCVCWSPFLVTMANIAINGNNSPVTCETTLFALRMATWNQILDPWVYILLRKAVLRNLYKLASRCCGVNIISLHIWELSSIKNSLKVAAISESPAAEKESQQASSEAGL
Chain of Cytochrome P450 2C9 (P11712 whole entry): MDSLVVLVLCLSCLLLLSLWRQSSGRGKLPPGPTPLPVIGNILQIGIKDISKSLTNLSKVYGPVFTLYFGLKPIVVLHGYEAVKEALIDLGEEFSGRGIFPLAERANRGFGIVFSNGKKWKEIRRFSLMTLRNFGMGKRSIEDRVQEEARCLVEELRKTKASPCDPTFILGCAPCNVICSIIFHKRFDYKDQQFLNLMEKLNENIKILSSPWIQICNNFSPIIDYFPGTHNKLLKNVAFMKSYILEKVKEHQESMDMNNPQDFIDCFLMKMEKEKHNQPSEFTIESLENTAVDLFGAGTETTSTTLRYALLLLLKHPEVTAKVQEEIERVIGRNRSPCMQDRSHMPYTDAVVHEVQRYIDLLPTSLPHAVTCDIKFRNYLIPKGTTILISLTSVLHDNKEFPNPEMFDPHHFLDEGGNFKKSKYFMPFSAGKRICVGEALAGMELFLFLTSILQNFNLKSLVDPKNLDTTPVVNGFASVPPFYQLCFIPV
Chain of Cytochrome P450 1A2 (P05177 whole entry): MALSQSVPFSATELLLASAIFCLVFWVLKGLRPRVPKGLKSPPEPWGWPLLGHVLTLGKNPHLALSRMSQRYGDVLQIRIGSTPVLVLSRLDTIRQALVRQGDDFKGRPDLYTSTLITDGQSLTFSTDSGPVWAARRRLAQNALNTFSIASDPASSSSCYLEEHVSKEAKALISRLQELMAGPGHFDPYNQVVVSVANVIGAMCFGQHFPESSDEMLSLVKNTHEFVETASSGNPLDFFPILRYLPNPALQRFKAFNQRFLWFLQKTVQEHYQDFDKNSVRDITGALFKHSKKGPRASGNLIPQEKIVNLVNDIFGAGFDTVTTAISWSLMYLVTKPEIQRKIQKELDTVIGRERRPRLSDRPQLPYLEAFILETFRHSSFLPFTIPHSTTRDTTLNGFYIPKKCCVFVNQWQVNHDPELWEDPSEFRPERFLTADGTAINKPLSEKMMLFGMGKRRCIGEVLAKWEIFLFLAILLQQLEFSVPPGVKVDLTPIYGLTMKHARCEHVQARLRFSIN
Chain of Cytochrome P450 2D6 (P10635 whole entry): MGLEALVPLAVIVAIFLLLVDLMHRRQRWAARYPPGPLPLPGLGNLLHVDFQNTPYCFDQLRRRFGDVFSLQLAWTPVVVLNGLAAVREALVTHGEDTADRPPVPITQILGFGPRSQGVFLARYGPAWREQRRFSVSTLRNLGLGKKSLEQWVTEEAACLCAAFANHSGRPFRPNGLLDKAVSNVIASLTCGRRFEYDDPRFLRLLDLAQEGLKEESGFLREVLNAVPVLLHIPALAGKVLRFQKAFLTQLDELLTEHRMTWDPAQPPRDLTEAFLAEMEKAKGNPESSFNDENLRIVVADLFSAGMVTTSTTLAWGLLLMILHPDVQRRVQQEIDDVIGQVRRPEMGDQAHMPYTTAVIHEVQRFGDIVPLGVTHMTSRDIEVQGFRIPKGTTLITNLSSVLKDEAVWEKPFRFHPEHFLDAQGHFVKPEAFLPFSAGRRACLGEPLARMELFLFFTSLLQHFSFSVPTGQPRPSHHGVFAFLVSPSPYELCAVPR

For the molecule `Cc1c(-c2ccccc2)nc2ccc(Br)cc2c1C(=O)Nc1ccc(C(=O)O)cc1F`, in data set [1], the solubility – broadly, the dissolved amount per volume that the medium holds – came out at 1 µg/mL (≈ 2.09 µM). Further, the half-life (in general, how long it takes for the measured level to halve) in data set [2] is 3.1 h. In addition, in [3], the bioavailability (usually the share of a dose that reaches the circulation, judged against a reference dose that is usually intravenous) came out at 100%. The clearance (as a rule, a measure of how efficiently the substance is removed, as volume per time) in data set [4] (Wistar) was 16.7 mL/min/kg. Further, the results for the IC50 in [5] and in data set [8] were more than 20 µM and 0.027 µM, respectively. The fraction unbound (commonly the share of the substance not bound to proteins or other matrix) at 6 h in data set [6] stood at 0.016. Further, the logD (usually the decadic logarithm of the distribution of all forms, ionised or not, between an organic phase and buffer at a given pH) in [7] was 1.9.
For `Cc1c(-c2ccccc2)nc2ccc(Br)cc2c1C(=O)NC12CCC(C(=O)O)(CC1)CC2`, the IC50 in data set [9], in [10], in data set [11], in data set [12] and in data set [5] was more than 10 µM throughout. In data set [2], this molecule gave a half-life of 15 h. For the same molecule, the bioavailability turned out to be 100% in data set [3] and 90% in data set [14]. The molecule also showed a clearance in data set [13] of 0.5 mL/min/kg.
As to `Cc1c(N2CCCC2)nc2ccc(Br)cc2c1C(=O)NC[C@H](CCC(=O)O)c1ccccc1Cl`, the outcome in [15], in data set [16] and in data set [17] was Active. Besides, the fIC50 in data set [18] was 5.2 nM.
Turning to `Cc1c(-c2ccccc2)nc2ccc(Br)cc2c1C(=O)NCC(CC(=O)O)c1ccccc1Cl` (single isomer, unassigned; (+)), the half-life in data set [2] is 2.6 h. This molecule displayed a bioavailability in [3] of 90%. Also, in data set [4] (0.25 h), the CL was 43.3 mL/min/kg. Moreover, the IC50 (as a rule, the concentration that gives 50% inhibition) in [5] is more than 20 µM. Further, in data set [7], the logD worked out at 2. For the same molecule, in data set [19], the Activity result was “Non-Toxic”. Further, the NOAEL (usually the highest tested level that showed no adverse finding) in data set [20] was found to be 6 µM.

For the origin of these results see ChEMBL document CHEMBL4665834 (J Med Chem, 2020).
